Assays:
[1] = biological target: Cathepsin D (Homo sapiens, UniProt P07339); test: Compound was tested for inhibitory activity against cathepsin D
[2] = biological target: Plasmepsin II (Plasmodium falciparum, UniProt P46925); test: Inhibitory activity against plasmepsin-2
[3] = tested on: Plasmodium falciparum; test: Inhibitory concentration for Plasmodium falciparum culture; format: functional, organism-based

Sequence of Cathepsin D (P07339 65-162 limits assumed): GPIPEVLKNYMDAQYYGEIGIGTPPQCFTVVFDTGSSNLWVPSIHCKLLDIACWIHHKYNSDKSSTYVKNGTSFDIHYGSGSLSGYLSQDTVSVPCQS
Sequence of Cathepsin D (P07339 169-412 limits assumed): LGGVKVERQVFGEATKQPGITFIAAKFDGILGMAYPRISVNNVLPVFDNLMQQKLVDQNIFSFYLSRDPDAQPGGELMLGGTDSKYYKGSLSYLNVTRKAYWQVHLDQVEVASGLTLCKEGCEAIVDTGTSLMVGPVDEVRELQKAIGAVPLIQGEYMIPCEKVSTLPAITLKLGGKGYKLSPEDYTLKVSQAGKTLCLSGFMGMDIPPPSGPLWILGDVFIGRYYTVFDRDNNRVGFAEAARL
Sequence of Plasmepsin II (P46925 whole entry): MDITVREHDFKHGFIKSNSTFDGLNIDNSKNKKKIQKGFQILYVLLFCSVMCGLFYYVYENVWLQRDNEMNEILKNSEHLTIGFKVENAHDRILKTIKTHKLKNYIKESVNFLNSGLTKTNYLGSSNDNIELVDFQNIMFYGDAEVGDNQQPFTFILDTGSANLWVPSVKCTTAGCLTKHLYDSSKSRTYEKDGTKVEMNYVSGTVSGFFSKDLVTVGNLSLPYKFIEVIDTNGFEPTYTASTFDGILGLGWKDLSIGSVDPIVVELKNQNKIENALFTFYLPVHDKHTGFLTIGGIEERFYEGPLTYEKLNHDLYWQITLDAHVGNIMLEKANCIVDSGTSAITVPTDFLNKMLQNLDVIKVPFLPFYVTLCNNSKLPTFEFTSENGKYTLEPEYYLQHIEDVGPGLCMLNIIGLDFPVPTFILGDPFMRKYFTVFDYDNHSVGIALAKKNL

Structure (SMILES)	Ki [1]	IC50 [2]	IC50 [1]	IC50 [3]	Ki [2]
CCCCNC(=O)C[C@H](O)[C@H](Cc1ccccc1)NC(=O)C1CN(C(=O)CCCCC(=O)OCC)CCN1C(=O)CCc1cc(OC)c(OC)c(OC)c1 (some centres undefined)	1.1 µM	~100 µM			
CCCCNC(=O)C[C@H](O)[C@H](Cc1ccccc1)NC(=O)CC1CN(Cc2ccc(-c3ccccc3)cc2)CCN1C(=O)CC(CN)c1ccc(Cl)cc1 (some centres undefined)			~45 µM	3 µM	0.49 µM
CCCCNC(=O)C[C@H](O)[C@H](Cc1ccccc1)NC(=O)C1CN(CCOCCc2ccccc2)CCN1C(=O)CCc1cc(OC)c(OC)c(OC)c1 (some centres undefined)	1.8 µM	~65 µM			
CCCCNC(=O)C[C@H](O)[C@H](Cc1ccccc1)NC(=O)CC1CN(Cc2cc(OC)c(OC)c(OC)c2)CCN1C(=O)c1ccc(OC(C)C)cc1 (some centres undefined)	5.3 µM	~40 µM			

Source: ChEMBL document CHEMBL1130672, “Evaluation of a structure-based statine cyclic diamino amide encoded combinatorial library against plasmepsin II and cathepsin D” (Bioorg Med Chem Lett, 1998)
